We go through two compounds from ChEMBL document CHEMBL5303766, “Data for DCP probe FHT-2344” (2022).

For assay [1], the target named is T1, Serine/threonine-protein kinase Nek2 (Homo sapiens) (UniProt P51955).
T1 sequence (whole entry): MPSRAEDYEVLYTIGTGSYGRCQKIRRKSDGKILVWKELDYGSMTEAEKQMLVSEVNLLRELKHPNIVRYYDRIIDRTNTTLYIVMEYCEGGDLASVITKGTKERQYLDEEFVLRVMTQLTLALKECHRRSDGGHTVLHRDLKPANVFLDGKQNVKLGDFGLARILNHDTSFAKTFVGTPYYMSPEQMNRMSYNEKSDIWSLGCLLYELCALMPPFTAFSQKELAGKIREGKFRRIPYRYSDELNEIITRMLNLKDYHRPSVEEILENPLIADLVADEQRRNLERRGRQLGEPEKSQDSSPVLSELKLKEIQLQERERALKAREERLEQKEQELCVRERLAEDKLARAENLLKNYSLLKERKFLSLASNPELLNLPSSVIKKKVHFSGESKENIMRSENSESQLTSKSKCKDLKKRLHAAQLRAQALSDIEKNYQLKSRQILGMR
Kind of assay: NEK2 SGC Tm panel (DSF). The following applies: for ΔTm: Compound concentration 10.0 uM.

Assay [2] has as its target Muscarinic acetylcholine receptor M4 (Homo sapiens) (UniProt P08173). The following applies: Compound concentration 10.0 uM.
The target of assay [3] is T2, Serine/threonine-protein kinase haspin (Homo sapiens) (UniProt Q8TF76).
T2 sequence (whole entry): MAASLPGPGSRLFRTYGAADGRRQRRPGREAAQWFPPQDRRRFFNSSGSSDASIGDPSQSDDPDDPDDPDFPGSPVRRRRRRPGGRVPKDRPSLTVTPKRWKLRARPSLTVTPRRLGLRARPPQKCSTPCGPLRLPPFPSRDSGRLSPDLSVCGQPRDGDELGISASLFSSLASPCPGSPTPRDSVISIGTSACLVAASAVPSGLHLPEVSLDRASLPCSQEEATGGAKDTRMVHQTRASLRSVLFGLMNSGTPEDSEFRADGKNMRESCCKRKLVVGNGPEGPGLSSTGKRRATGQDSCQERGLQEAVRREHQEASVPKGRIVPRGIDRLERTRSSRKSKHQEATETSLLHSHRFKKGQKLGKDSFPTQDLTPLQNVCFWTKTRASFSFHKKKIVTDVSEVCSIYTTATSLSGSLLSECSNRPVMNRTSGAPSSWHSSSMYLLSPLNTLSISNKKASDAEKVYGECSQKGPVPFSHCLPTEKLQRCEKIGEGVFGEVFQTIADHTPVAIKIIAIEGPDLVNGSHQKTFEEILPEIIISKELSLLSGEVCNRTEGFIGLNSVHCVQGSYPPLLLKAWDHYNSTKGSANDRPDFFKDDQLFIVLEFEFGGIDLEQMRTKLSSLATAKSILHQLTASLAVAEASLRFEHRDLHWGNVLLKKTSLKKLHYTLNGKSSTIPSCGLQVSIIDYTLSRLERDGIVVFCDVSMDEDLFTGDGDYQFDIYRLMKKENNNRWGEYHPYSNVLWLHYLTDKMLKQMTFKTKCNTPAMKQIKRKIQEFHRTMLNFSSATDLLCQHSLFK
The experiment in a line: GSG2 SGC Tm panel (DSF). The following applies: for ΔTm: Compound concentration 10.0 uM.

Assay [4] has as its target Fibroblast growth factor receptor 3 (Homo sapiens) (UniProt P22607). The experiment in a line: FGFR3 SGC Tm panel (DSF). The following applies: for ΔTm: Compound concentration 10.0 uM.
The target of assay [5] is 5-hydroxytryptamine receptor 7 (Homo sapiens) (UniProt P34969). The following applies: Compound concentration 10.0 uM.
Sequence of 5-hydroxytryptamine receptor 7 (Homo sapiens) (P34969 whole entry): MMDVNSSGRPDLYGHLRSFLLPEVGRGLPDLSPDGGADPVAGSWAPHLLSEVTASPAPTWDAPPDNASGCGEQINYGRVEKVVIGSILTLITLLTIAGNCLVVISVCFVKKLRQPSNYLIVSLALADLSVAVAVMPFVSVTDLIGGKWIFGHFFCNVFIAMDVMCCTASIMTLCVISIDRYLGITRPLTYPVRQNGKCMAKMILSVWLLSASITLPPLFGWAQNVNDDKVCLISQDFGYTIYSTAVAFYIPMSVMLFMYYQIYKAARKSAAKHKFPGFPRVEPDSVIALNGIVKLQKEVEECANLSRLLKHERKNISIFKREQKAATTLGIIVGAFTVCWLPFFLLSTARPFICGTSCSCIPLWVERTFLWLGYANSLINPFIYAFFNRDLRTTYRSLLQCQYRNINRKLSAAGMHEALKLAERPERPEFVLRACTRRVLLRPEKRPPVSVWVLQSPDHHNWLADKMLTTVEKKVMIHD
Assay [6] concerns the target T3, Serine/threonine-protein kinase PLK4 (Homo sapiens) (UniProt O00444).
T3 sequence (whole entry): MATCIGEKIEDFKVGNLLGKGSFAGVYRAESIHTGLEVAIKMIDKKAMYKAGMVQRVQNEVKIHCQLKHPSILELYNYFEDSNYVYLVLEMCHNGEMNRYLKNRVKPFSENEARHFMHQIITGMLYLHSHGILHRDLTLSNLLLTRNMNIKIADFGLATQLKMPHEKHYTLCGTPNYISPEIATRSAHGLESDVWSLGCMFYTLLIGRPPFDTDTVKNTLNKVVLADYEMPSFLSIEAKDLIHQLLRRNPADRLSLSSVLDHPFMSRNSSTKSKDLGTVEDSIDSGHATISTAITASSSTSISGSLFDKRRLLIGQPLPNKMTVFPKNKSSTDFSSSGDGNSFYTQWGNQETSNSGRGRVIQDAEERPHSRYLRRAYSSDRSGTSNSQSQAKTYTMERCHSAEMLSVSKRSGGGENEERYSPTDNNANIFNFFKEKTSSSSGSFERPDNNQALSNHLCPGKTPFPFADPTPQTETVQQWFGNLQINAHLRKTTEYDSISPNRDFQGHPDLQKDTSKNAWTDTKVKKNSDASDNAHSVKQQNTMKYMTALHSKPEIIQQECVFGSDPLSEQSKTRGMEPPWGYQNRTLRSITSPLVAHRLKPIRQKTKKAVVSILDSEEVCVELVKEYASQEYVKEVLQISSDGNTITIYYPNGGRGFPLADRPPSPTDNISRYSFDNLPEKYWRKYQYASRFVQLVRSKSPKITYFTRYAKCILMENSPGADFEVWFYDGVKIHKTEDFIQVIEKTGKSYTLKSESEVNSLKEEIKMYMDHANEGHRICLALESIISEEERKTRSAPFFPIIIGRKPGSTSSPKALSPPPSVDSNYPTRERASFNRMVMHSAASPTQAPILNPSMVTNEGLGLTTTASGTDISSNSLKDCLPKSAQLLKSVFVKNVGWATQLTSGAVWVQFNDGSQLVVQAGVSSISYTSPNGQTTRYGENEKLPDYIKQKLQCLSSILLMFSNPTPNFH
The experiment in a line: PLK4 SGC Tm panel (DSF). The following applies: for ΔTm: Compound concentration 10.0 uM.

Assay [7] addresses Muscarinic acetylcholine receptor M3 (Homo sapiens) (UniProt P20309). The following applies: Compound concentration 10.0 uM.
Assay [8] addresses Death-associated protein kinase 3 (Homo sapiens) (UniProt O43293). The experiment in a line: DAPK3 SGC Tm panel (DSF). The following applies: for ΔTm: Compound concentration 10.0 uM.
Assay [9] has as its target T4, Serine/threonine-protein kinase 17B (Homo sapiens) (UniProt O94768).
T4 sequence (whole entry): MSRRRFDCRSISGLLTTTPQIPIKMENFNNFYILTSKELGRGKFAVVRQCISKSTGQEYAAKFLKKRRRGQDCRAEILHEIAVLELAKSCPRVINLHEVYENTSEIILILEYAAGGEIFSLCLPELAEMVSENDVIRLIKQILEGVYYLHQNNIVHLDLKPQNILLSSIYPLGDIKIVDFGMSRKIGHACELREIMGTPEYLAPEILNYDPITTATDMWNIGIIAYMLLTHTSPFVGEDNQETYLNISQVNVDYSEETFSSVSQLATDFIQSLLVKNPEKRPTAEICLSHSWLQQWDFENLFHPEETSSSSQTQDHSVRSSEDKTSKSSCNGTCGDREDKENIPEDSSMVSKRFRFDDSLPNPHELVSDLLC
The experiment in a line: STK17B SGC Tm panel (DSF). The following applies: for ΔTm: Compound concentration 10.0 uM.

Sequence of Fibroblast growth factor receptor 3 (Homo sapiens) (P22607 23-806 limits assumed): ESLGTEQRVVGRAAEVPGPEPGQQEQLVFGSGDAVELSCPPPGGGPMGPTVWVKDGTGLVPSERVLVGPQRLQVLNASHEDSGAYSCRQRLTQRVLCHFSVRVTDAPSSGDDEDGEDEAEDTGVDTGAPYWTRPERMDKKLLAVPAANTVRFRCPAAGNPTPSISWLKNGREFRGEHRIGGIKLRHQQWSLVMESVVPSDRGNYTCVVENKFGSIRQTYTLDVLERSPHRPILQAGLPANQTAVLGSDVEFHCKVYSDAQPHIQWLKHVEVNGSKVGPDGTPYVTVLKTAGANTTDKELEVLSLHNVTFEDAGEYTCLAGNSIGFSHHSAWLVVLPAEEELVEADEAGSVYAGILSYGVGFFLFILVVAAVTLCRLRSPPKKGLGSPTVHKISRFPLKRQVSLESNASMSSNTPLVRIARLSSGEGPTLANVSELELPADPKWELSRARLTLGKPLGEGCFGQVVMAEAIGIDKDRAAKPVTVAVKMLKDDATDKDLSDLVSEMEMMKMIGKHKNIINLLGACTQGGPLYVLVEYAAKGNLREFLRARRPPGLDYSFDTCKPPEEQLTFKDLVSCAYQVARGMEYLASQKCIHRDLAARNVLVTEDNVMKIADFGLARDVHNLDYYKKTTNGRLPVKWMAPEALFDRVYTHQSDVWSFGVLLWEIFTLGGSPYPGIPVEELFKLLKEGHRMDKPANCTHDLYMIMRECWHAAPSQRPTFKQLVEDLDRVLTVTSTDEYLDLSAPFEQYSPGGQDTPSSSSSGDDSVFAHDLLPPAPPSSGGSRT
Sequence of Death-associated protein kinase 3 (Homo sapiens) (O43293 whole entry, looked up): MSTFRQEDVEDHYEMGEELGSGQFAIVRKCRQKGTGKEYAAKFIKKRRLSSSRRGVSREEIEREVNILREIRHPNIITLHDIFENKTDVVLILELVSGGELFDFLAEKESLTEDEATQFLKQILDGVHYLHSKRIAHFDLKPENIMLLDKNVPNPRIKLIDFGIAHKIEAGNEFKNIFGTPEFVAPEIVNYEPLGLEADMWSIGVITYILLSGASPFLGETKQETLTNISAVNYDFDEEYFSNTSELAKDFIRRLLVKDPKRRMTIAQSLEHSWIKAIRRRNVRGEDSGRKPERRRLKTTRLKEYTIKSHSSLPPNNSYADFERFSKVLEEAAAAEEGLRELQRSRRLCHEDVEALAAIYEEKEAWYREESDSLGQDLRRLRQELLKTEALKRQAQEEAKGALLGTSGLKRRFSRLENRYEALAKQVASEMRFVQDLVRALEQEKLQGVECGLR
Sequence of Muscarinic acetylcholine receptor M4 (Homo sapiens) (P08173 whole entry): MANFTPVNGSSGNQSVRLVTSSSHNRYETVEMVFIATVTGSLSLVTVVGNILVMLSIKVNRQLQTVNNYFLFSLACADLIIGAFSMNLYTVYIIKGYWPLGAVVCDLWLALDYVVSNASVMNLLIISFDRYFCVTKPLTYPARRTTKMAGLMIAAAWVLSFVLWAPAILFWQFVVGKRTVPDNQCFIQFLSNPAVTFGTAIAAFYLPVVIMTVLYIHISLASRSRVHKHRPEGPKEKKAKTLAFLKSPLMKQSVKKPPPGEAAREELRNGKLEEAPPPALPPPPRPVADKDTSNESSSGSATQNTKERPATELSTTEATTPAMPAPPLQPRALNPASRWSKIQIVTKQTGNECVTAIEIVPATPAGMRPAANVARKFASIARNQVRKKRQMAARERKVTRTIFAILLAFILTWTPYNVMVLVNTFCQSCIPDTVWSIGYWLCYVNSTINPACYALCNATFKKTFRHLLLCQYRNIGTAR
Sequence of Muscarinic acetylcholine receptor M3 (Homo sapiens) (P20309 whole entry, looked up): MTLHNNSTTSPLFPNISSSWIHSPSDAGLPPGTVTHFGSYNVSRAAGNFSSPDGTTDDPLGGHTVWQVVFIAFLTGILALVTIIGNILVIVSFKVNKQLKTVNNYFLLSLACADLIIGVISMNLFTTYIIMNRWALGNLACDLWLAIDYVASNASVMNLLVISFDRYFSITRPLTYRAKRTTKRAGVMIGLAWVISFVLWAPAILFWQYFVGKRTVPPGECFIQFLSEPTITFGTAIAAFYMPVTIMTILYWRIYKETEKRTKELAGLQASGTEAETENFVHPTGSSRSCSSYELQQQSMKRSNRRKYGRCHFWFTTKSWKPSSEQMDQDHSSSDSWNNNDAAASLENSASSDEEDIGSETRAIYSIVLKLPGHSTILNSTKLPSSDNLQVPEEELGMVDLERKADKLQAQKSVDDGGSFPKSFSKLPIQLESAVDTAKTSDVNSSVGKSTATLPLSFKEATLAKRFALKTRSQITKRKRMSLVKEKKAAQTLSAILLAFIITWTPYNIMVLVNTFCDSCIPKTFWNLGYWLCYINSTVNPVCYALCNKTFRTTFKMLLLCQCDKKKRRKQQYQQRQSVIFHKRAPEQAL

By inhibition is commonly meant the change of the read-out against control, counted positive when it falls. Take `COC[C@H](NC(=O)c1ccn(S(C)(=O)=O)c1)C(=O)Nc1nc(-c2cccc(-c3ccn(C)n3)c2)cs1`: the delta Tm Staurosporine positive control in assay [1] is 3.7; in assay [3], 7.11; in assay [4], 11.8; in assay [6], 19.9; in assay [8], 16.2; in assay [9], 10. The ΔTm in assay [1] is 0.182; in assay [3] it was -0.207; in assay [4], 0.361; in assay [6], 0.546; in assay [8] it was -1.53; in [9] it was -0.114. The values for the inhibition in assay [2], in [5] and in assay [7] were 4.13%, 3.33% and 9.46%, respectively.

Turning to `C[C@H](NC(=O)c1cn(C2(C#N)CC2)cn1)C(=O)Nc1nc(-c2cccc(-c3ccn(C)n3)c2)cs1`, the delta Tm Staurosporine positive control in assay [1] worked out at 3.7; in assay [3] it was 7.11; in [4], 11.8; in assay [6], 19.9; in assay [8] it was 16.2; in assay [9], 10. Also, the ΔTm is -0.146 in assay [1]; -1.11 in [3]; 1.77 in assay [4]; 0.729 in [6]; -1.05 in [8]; -12.2 in assay [9]. The inhibition in assay [2] is 7.09%; in assay [5], 23%; in assay [7], 40.1%.
